Where “and” joins values, the source holds several entries; their conditions need not be identical. Equal values may be shown once.
Key:
Type in all cases: in vivo
Lamium purpureum = assay: Post-emergence herbicidal action against Lamium purpureum
Summary of the method: (§1)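 Weeds sown in sandy loam pots in greenhouse; treated post-emergence at three-leaf stage (three weeks after sowing) by spraying formulated compositions at various dosages in 300 to 800 l/ha water. Visual scoring versus untreated controls after about 3 to 4 weeks; synergism judged against Colby expected values.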

Sorghum halepense = assay: Post-emergence herbicidal action against Sorghum halepense; settings: 21 DAT
Procedure: (§2) When the observed efficacies exceed the formal sum total of the values of the tests with individual applications, they also exceed the expected value according to Colby, which is calculated using the formula below and is likewise regarded as an indication of synergism (cf. S. R. Colby; in Weeds 15 (1967) p. 20 to 22): E^C=A+B−([…])
(§3) Here: • A=efficacy of the active compound (A) in % at an application rate of a g a.i./ha; • B=efficacy of the active compound (B) in % at an application rate of b g a.i./ha; • E^C=expected value of the effect of the combination (A)+(B) in % at the combined application rate a+b g a.i./ha.
(§4) Seeds or rhizome pieces of mono- and dicotyledonous weeds are placed in sandy loam in pots, covered with soil and grown in a greenhouse under good growth conditions (temperature, air humidity, water supply). Three weeks after sowing, the test plants were treated at the three-leaf stage with the compositions according to the invention. The compositions according to the invention formulated as spray powders or as emulsion concentrates were sprayed onto the green plant parts in various dosages with an application rate of 300 to 800 l/ha of water (equivalent). After the test plants have been left to stand in the greenhouse under optimal growth conditions for about 3 to 4 weeks, the action of the preparations is scored visually in comparison to untreated controls. The compositions according to the invention also have good post-emergence herbicidal activity against a broad spectrum of economically important gramineous and broadleaf weeds.

Bidens pilosa = assay: Post-emergence herbicidal action against Bidens pilosa; settings: 21 DAT
Summary of the method: as §1

Alopecurus myosuroides = assay: Post-emergence herbicidal action against Alopecurus myosuroides
Echinochloa crus-galli = assay: Post-emergence herbicidal action against Echinochloa crus-galli; settings: 21 DAT; 50 g a.i./ha
Procedure: as §2, §3, §4

Digitaria sanguinalis = assay: Post-emergence herbicidal action against Digitaria sanguinalis; settings: 21 DAT; 50 g a.i./ha
Summary of the method: as §1

Polygonum convolvulus = assay: Post-emergence herbicidal action against Polygonum convolvulus; settings: 21 DAT; 50 g a.i./ha
Kochia scoparia = assay: Post-emergence herbicidal action against Kochia scoparia; settings: 21 DAT
Poa annua = assay: Post-emergence herbicidal action against Poa annua
Summary of the method: as §1

Bromus sterilis = assay: Post-emergence herbicidal action against Bromus sterilis
Veronica hederifolia = assay: Post-emergence herbicidal action against Veronica hederifolia; settings: 28 DAT; 450 g a.i./ha
Amaranthus palmeri = assay: Post-emergence herbicidal action against Amaranthus palmeri; settings: 21 DAT; (res.); 50 g a.i./ha
Summary of the method: as §1

Phalaris minor = assay: Post-emergence herbicidal action against Phalaris minor
Matricaria inodora = assay: Post-emergence herbicidal action against Matricaria inodora
Lolium rigidum = assay: Post-emergence herbicidal action against Lolium rigidum
Centaurea cyano = assay: Post-emergence herbicidal action against Centaurea cyano
Summary of the method: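 Formulations (spray powders or emulsion concentrates) applied at various doses onto foliage using 300 to 800 l/ha water; plants treated at three-leaf stage, three weeks post-sowing in sandy loam under greenhouse conditions.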

`O=C(O)CNCP(=O)(O)O` [(B7.5) Glyphosate] showed a Herbicidal action (Lamium purpureum; 14 DAT, 50 g a.i./ha) of 50%, a Herbicidal action (Lamium purpureum; 28 DAT, 50 g a.i./ha) of 30% and a Herbicidal action (Lamium purpureum; 28 DAT, 150 g a.i./ha) of 40%. It also gave a Herbicidal action (Lamium purpureum; 28 DAT, 450 g a.i./ha) of 75%, a Herbicidal action (Sorghum halepense; 50 g a.i./ha) of 30% and a Herbicidal action (Sorghum halepense; 150 g a.i./ha) of 70%. The Herbicidal action (Sorghum halepense; 450 g a.i./ha) was 85%, the Herbicidal action (Bidens pilosa; 150 g a.i./ha) was 75% and the Herbicidal action (Bidens pilosa; 450 g a.i./ha) was 85%. For the same compound, the Herbicidal action (Alopecurus myosuroides; 14 DAT, 50 g a.i./ha) was 30%, the Herbicidal action (Alopecurus myosuroides; 28 DAT, 50 g a.i./ha) was 10% and the Herbicidal action (Alopecurus myosuroides; 28 DAT, 150 g a.i./ha) was 30%. It also gave a Herbicidal action (Alopecurus myosuroides; 28 DAT, 450 g a.i./ha) of 60%, a Herbicidal action (Echinochloa crus-galli) of 45% and a Herbicidal action (Digitaria sanguinalis) of 80%. It also gave a Herbicidal action (Polygonum convolvulus) of 10%, a Herbicidal action (Kochia scoparia; 50 g a.i./ha) of 35% and a Herbicidal action (Kochia scoparia; 150 g a.i./ha) of 20%. For the same compound, the Herbicidal action (Poa annua; 14 DAT, 50 g a.i./ha) was 20%, the Herbicidal action (Poa annua; 28 DAT, 50 g a.i./ha) was 30% and the Herbicidal action (Poa annua; 28 DAT, 150 g a.i./ha) was 50% and 60%. For the same compound, the Herbicidal action (Poa annua; 28 DAT, 450 g a.i./ha) was 60%, the Herbicidal action (Bromus sterilis; 14 DAT, 50 g a.i./ha) was 30% and the Herbicidal action (Bromus sterilis; 28 DAT, 150 g a.i./ha) was 40%. For the same compound, the Herbicidal action (Veronica hederifolia) was 90%, the Herbicidal action (Amaranthus palmeri) was 60% and the Herbicidal action (Phalaris minor; 14 DAT, 50 g a.i./ha) was 30%. For the same compound, the Herbicidal action (Phalaris minor; 14 DAT, 450 g a.i./ha) was 80%, the Herbicidal action (Phalaris minor; 28 DAT, 450 g a.i./ha) was 30% and the Herbicidal action (Matricaria inodora; 14 DAT, 50 g a.i./ha) was 40% and 50%. The Herbicidal action (Matricaria inodora; 28 DAT, 450 g a.i./ha) was 80%, the Herbicidal action (Lolium rigidum; 14 DAT, 50 g a.i./ha) was 40% and the Herbicidal action (Lolium rigidum; 14 DAT, resistant biotype, 50 g a.i./ha) was 20%. For the same compound, the Herbicidal action (Lolium rigidum; 28 DAT, 50 g a.i./ha) was 30%, the Herbicidal action (Lolium rigidum; 28 DAT, 150 g a.i./ha) was 60% and the Herbicidal action (Centaurea cyano; 14 DAT, 50 g a.i./ha) was 30%. It also gave a Herbicidal action (Centaurea cyano; 14 DAT, 150 g a.i./ha) of 60%, a Herbicidal action (Centaurea cyano; 28 DAT, 50 g a.i./ha) of 30% and a Herbicidal action (Centaurea cyano; 28 DAT, 150 g a.i./ha) of 60%. For the same compound, the Herbicidal action (Centaurea cyano; 28 DAT, 450 g a.i./ha) was 85%.

Source: patent publication US12171230B2, “Herbicidal compositions” (Bayer Aktiengesellschaft, priority 2018, dated 2024)
